In PubChem BioAssay AID330 (DTP/NCI, 2004):
“And” between values parts separate entries of the source, which are not always exact repeats. Identical values can stand only once. Toxic doses and inconclusive results are not listed. The calls were made as follows: active = survival T/C of 150% or more; inactive = T/C below 125% in these data.

System: P388 leukemia ip, CD2F1 mice, survival T/C
Assay: NCI In Vivo Anticancer Drug Screen. Data for tumor model P388 Leukemia (intraperitoneal) in CD2F1 (CDF1) mice
Details: endpoint: median survival time, higher = longer survival
Procedure, shortened: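 Mice carrying the transplanted tumor received test compound or vehicle. Survival was recorded in each group, and the value is the treated-group measurement divided by that of the vehicle-treated control group.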

[1] = dose: 100.0 mg/kg/injection, schedule: Q04DX003 (ip), vehicle: saline
[2] = dose: 200.0 mg/kg/injection, schedule: Q04DX003 (ip), vehicle: saline
[3] = dose: 50.0 mg/kg/injection, schedule: Q01DX005 (ip), vehicle: saline with Tween-80
[4] = dose: 100.0 mg/kg/injection, schedule: Q01DX005 (ip), vehicle: saline with Tween-80
[5] = dose: 200.0 mg/kg/injection, schedule: Q01DX005 (ip), vehicle: saline with Tween-80
[6] = dose: 60.0 mg/kg/injection, schedule: Q01DX005 (ip), vehicle: saline with Tween-80
[7] = dose: 120.0 mg/kg/injection, schedule: Q01DX005 (ip), vehicle: saline with Tween-80
[8] = dose: 240.0 mg/kg/injection, schedule: Q01DX005 (ip), vehicle: saline with Tween-80
[9] = dose: 50.0 mg/kg/injection, schedule: Q01DX005 (ip), vehicle: Klucel (hydroxypropylcellulose) (HPC)
[10] = dose: 100.0 mg/kg/injection, schedule: Q01DX005 (ip), vehicle: Klucel (hydroxypropylcellulose) (HPC)
[11] = dose: 200.0 mg/kg/injection, schedule: Q01DX005 (ip), vehicle: Klucel (hydroxypropylcellulose) (HPC)

Measured: T/C

CC(C)=CCC/C(C)=C/CC/C(C)=C/CC/C(C)=C/CC/C(C)=C/CC/C(C)=C/CC/C(C)=C/CC/C(C)=C/CC/C(C)=C/CO
inactive: dose: 6.25 mg/kg/injection, schedule: Q01DX009 (ip), vehicle: saline + alcohol 98 % of control | dose: 12.5 mg/kg/injection, schedule: Q01DX009 (ip), vehicle: saline + alcohol 96 % of control | dose: 25.0 mg/kg/injection, schedule: Q01DX009 (ip), vehicle: saline + alcohol 99 % of control | dose: 50.0 mg/kg/injection, schedule: Q01DX009 (ip), vehicle: saline + alcohol 107 % of control | dose: 100.0 mg/kg/injection, schedule: Q01DX009 (ip), vehicle: saline + alcohol 96 % of control | dose: 200.0 mg/kg/injection, schedule: Q01DX009 (ip), vehicle: saline + alcohol 109 % of control

c1ccc(C2SC(c3ccccc3)SC(c3ccccc3)S2)cc1 (centres undefined)
inactive: dose: 50.0 mg/kg/injection, schedule: Q01DX009 (ip), vehicle: Klucel (hydroxypropylcellulose) (HPC) 109 % of control | dose: 100.0 mg/kg/injection, schedule: Q01DX009 (ip), vehicle: Klucel (hydroxypropylcellulose) (HPC) 107 % of control | dose: 200.0 mg/kg/injection, schedule: Q01DX009 (ip), vehicle: Klucel (hydroxypropylcellulose) (HPC) 108 % of control | dose: 400.0 mg/kg/injection, schedule: Q01DX009 (ip), vehicle: Klucel (hydroxypropylcellulose) (HPC) 106 % of control

Cn1c(=O)c2c(nc(/N=C/c3ccco3)n2C)n(C)c1=O
inactive: [1] 91 % of control | [2] 90 % of control | dose: 400.0 mg/kg/injection, schedule: Q04DX003 (ip), vehicle: saline 92 % of control

CC1CCCN2C(=O)CN(CCc3ccccc3)CC(=O)N12 (centres undefined)
inactive: [3] 99 % of control | [4] 100 % of control | [5] 100 % of control

COc1cc2nc(C)[n+]3nc([O-])ccc3c2cc1OC
inactive: dose: 60.0 mg/kg/injection, schedule: Q01DX005 (ip), vehicle: suspension in saline 112 % of control | dose: 120.0 mg/kg/injection, schedule: Q01DX005 (ip), vehicle: suspension in saline 104 % of control | dose: 240.0 mg/kg/injection, schedule: Q01DX005 (ip), vehicle: suspension in saline 108 % of control

COc1ccc2nc(C#N)ccc2c1
inactive: [3] 92 % of control | [4] 90 % of control | [5] 95 % of control

Cc1c(C#N)sc2ccccc12
inactive: dose: 25.0 mg/kg/injection, schedule: Q01DX009 (ip), vehicle: other 96 % of control | dose: 50.0 mg/kg/injection, schedule: Q01DX009 (ip), vehicle: other 105 % of control | dose: 100.0 mg/kg/injection, schedule: Q01DX009 (ip), vehicle: other 89 % of control

CN(C)c1ccc(-c2nc3c4ccccc4c4ccccc4c3[nH]2)cc1
inactive: dose: 50.0 mg/kg/injection, schedule: Q01DX009 (ip), vehicle: saline with Tween-80 105 % of control | dose: 100.0 mg/kg/injection, schedule: Q01DX009 (ip), vehicle: saline with Tween-80 90 % of control | dose: 200.0 mg/kg/injection, schedule: Q01DX009 (ip), vehicle: saline with Tween-80 87 % of control

CCCCC(S)CS (centres undefined)
inactive: dose: 12.5 mg/kg/injection, schedule: Q01DX005 (ip), vehicle: saline with Tween-80 107 % of control | dose: 25.0 mg/kg/injection, schedule: Q01DX005 (ip), vehicle: saline with Tween-80 103 % of control | [3] 107 % of control and 110 % of control

Cc1cc2nc3ccc(N=Nc4ccc(N(C)C)cc4)cc3n(-c3ccccc3)c-2cc1=N
inactive: dose: 0.39 mg/kg/injection, schedule: Q01DX009 (ip), vehicle: saline 113 % of control and 118 % of control | dose: 0.78 mg/kg/injection, schedule: Q01DX009 (ip), vehicle: saline 119 % of control

CC(C(/C=N/NC(N)=S)=N/NC(N)=S)N1C(=O)c2ccccc2C1=O (centres undefined)
inactive: [6] 97 % of control | [7] 94 % of control | [8] 88 % of control

COC1(OC)C(c2ccc([N+](=O)[O-])cc2)C(C#N)(C#N)C1(OC)OC (centres undefined)
inactive: dose: 60.0 mg/kg/injection, schedule: Q01DX005 (ip), vehicle: Klucel (hydroxypropylcellulose) (HPC) 100 % of control | dose: 120.0 mg/kg/injection, schedule: Q01DX005 (ip), vehicle: Klucel (hydroxypropylcellulose) (HPC) 97 % of control | dose: 240.0 mg/kg/injection, schedule: Q01DX005 (ip), vehicle: Klucel (hydroxypropylcellulose) (HPC) 99 % of control

COC(=O)C(C)NC(=O)Cc1ccccc1 (centres undefined)
inactive: dose: 100.0 mg/kg/injection, schedule: Q04DX003 (ip), vehicle: saline with Tween-80 104 % of control | dose: 200.0 mg/kg/injection, schedule: Q04DX003 (ip), vehicle: saline with Tween-80 100 % of control | dose: 400.0 mg/kg/injection, schedule: Q04DX003 (ip), vehicle: saline with Tween-80 90 % of control

CN1CC2(CO)C(c3ccccc3)OC(c3ccccc3)C(CO)(C1)C2O (centres undefined)
inactive: [6] 104 % of control and 100 % of control | [7] 107 % of control and 100 % of control | [8] 96 % of control

O=C(c1cccnc1)C(CCc1ccccn1)c1ccccn1 (centres undefined)
inactive: [1] 100 % of control | [2] 100 % of control

C=CC1(C)OC(=O)c2cc(C)c(OC)cc21 (centres undefined)
inactive: dose: 50.0 mg/kg/injection, schedule: Q01DX001 (ip), vehicle: saline with Tween-80 100 % of control | dose: 100.0 mg/kg/injection, schedule: Q01DX001 (ip), vehicle: saline with Tween-80 100 % of control | dose: 200.0 mg/kg/injection, schedule: Q01DX001 (ip), vehicle: saline with Tween-80 95 % of control | dose: 400.0 mg/kg/injection, schedule: Q01DX001 (ip), vehicle: saline with Tween-80 94 % of control

Cc1[nH]ccc(=O)c1OC(=O)C12CC3CC(CC(C3)C1)C2
inactive: [9] 94 % of control and 98 % of control | [10] 91 % of control and 97 % of control | [11] 101 % of control and 95 % of control | dose: 400.0 mg/kg/injection, schedule: Q01DX005 (ip), vehicle: Klucel (hydroxypropylcellulose) (HPC) 103 % of control and 98 % of control

Cc1[nH]nc(N)c1C(N)=O
inactive: [6] 100 % of control | [7] 99 % of control | [8] 86 % of control

COCC1(C)CCCC2(C)C1CCC13CCC(OC(C)=O)CC12O3 (centres undefined)
inactive: dose: 100.0 mg/kg/injection, schedule: Q01DX001 (ip), vehicle: saline 102 % of control | dose: 200.0 mg/kg/injection, schedule: Q01DX001 (ip), vehicle: saline 108 % of control | dose: 400.0 mg/kg/injection, schedule: Q01DX001 (ip), vehicle: saline 110 % of control

ClC1=C(Cl)N(C2=NCCC2)CC1
inactive: dose: 6.25 mg/kg/injection, schedule: Q01DX009 (ip), vehicle: Klucel (hydroxypropylcellulose) (HPC) 96 % of control | dose: 12.5 mg/kg/injection, schedule: Q01DX009 (ip), vehicle: Klucel (hydroxypropylcellulose) (HPC) 99 % of control | dose: 25.0 mg/kg/injection, schedule: Q01DX009 (ip), vehicle: Klucel (hydroxypropylcellulose) (HPC) 99 % of control

COC(=O)C1=C(C(=O)OC)C(=Nc2ccccc2)c2ccccc2C1=O
inactive: dose: 100.0 mg/kg/injection, schedule: Q04DX002 (ip), vehicle: Klucel (hydroxypropylcellulose) (HPC) 100 % of control | dose: 200.0 mg/kg/injection, schedule: Q04DX002 (ip), vehicle: Klucel (hydroxypropylcellulose) (HPC) 100 % of control | dose: 400.0 mg/kg/injection, schedule: Q04DX002 (ip), vehicle: Klucel (hydroxypropylcellulose) (HPC) 110 % of control

ONC1=Nc2ccccc2OCCOc2ccccc2N=C1NO
inactive: [9] 100 % of control | [10] 100 % of control | [11] 96 % of control

NC(C(=O)O)c1cc(=O)[nH]o1 (centres undefined)
inactive: dose: 2.5 mg/kg/injection, schedule: Q01DX009 (ip), vehicle: Klucel (hydroxypropylcellulose) (HPC) 98 % of control | dose: 5.0 mg/kg/injection, schedule: Q01DX009 (ip), vehicle: Klucel (hydroxypropylcellulose) (HPC) 93 % of control | dose: 10.0 mg/kg/injection, schedule: Q01DX009 (ip), vehicle: Klucel (hydroxypropylcellulose) (HPC) 101 % of control

O=C(O)CCCNC(=O)Cc1ccccc1
inactive: dose: 50.0 mg/kg/injection, schedule: Q01DX005 (ip), vehicle: saline 93 % of control | dose: 100.0 mg/kg/injection, schedule: Q01DX005 (ip), vehicle: saline 90 % of control

NC(=S)N/N=C\C(=O)c1ccccc1O
inactive: dose: 9.4 mg/kg/injection, schedule: Q01DX009 (ip), vehicle: saline with Tween-80 100 % of control (2×) and 101 % of control | dose: 18.75 mg/kg/injection, schedule: Q01DX009 (ip), vehicle: saline with Tween-80 90 % of control and 95 % of control and 98 % of control | dose: 75.0 mg/kg/injection, schedule: Q01DX009 (ip), vehicle: saline with Tween-80 99 % of control and 105 % of control | dose: 150.0 mg/kg/injection, schedule: Q01DX009 (ip), vehicle: saline with Tween-80 103 % of control
